Experimental data from patent publication US20050209278A1, “Piperidinyl- and piperazinyl-sulfonylmethyl hydroxamic acids and their use as protease inhibitors” (priority 2002, published 2005).
Counter-ions that a name gives are not always drawn. Like-named read-outs stand apart in the source and are kept apart here.

Assays:
[1] = biological target: T1, MMP-9 (Homo sapiens, UniProt P14780); assay: In vitro MMP inhibition, Ki determination (fluorogenic substrate II); format: biochemical
T1 construct: made in house; host or cells: MMP-9-transfected HT1080 cells (spent media)
T1 sequence (P14780 107-707 limits assumed): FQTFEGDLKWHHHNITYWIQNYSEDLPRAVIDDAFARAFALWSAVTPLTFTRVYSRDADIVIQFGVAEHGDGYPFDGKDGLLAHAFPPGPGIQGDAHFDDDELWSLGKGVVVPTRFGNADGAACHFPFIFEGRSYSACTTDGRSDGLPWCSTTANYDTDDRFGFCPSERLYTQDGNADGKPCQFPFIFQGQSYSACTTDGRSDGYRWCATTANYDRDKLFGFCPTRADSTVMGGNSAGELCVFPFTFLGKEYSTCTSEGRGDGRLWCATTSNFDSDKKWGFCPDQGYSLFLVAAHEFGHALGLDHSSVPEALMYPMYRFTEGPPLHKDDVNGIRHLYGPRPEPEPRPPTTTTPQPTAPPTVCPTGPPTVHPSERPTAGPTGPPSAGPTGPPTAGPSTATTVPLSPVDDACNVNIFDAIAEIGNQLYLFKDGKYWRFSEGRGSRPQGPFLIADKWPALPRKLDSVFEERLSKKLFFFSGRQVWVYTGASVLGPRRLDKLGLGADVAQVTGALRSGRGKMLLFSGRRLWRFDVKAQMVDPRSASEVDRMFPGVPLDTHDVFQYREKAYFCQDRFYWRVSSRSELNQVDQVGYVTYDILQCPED
Procedure: (§1) Several hydroxamic acids and salts thereof were analyzed in in vitro assays to determine their ability to inhibit the MMP cleavage of peptide substrates. […] and IC50 constants were calculated from the assayed hydroxamic acid-MMP interactions.
(§2) Human recombinant MMP-1, MMP-2, MMP-9, MMP-13, and MMP-14 were used in this assay. All enzymes were prepared in Assignee's laboratories following usual laboratory procedures. Protocols for the preparation and use of these enzymes are available in the scientific literature. See, e.g., Enzyme Nomenclature (Academic Press, San Diego, Calif., 1992) (and the citations therein). See also, Freije et al., “Molecular cloning and expression of collagenase-3, a novel human matrix metalloproteinase produced by breast carcinomas,” J Biol. Chem., 269(24), 16766-16773 (1994).
The MMP-9 proenzyme was purified by gelatin Sepharose chromatography from spent media of MMP-9-transfected HT1080 cells provided by Dr. Howard Welgus of Washington University (St. Louis, Mo.).
(§3) All MMPs were activated using 4-aminophenylmercuric acetate (“APMA”, Sigma Chemical, St. Louis, Mo.) or trypsin. MMP-9 also was activated using human recombinant MMP-3 (purified in Assignee's laboratory following standard cloning and purification techniques).
(§4) Two fluorogenic, methoxycoumarin-containing polypeptide substrates were used in the MMP inhibition assays: [drawing 427] Here, “Dpa” is 3-(2,4-dinitrophenyl)-L-2,3-diaminopropionyl group, and “MCA” is 7-methoxycoumarin-4-yl acetyl. Substrate (I) was purchased from Baychem (Redwood City, Calif.), and substrate II was prepared Assignee's laboratory. Substrate I was used in the IC50 determination assays, while substrate II was used in the Ki determination assays. In the absence of MMP inhibitory activity, either substrate is cleaved at the Gly-Leu peptide bond. This cleavage separates the highly fluorogenic peptide from the 2,4-dinitrophenyl quencher, thus resulting in increase of fluorescent intensity.
(§5) The stock solutions of the assayed hydroxamic acids (or salts thereof) were prepared in 1% dimethyl sulfoxide (DMSO). These stock solutions were diluted in Buffer A (100 mM Tris-HCl, 100 mM NaCl, 10 mM CaCl2, 0.05% polyoxyethylene 23 lauryl ether, pH 7.5) to obtain solutions with different hydroxamic acid concentrations, i.e., assay solutions with different concentrations of the assayed MMP inhibitory compound. The experiment controls contained the same amount of Buffer A/DMSO as the assayed sample, but contained no hydroxamic acid (or salt thereof).
The assays from which the Ki determinations were made were performed as follows. The assayed hydroxamic acid samples were incubated in separate wells of untreated white polystyrene plates (Nunc Nalgene International, Rochester, N.Y.), and analyzed on a Tecan SpectraFlour Plus plate reader. The excitation wavelength was 330 nm, and the emission wavelength—420 nm. All samples (assayed hydroxamic acids and controls) were incubated in separate plate wells at room temperature for 1 hr in the presence of 4 μM of MMP substrate (II). In the absence of MMP inhibitory activity, substrate II was cleaved at the Gly-Leu bond resulting in an increase of relative fluorescence. Inhibition was observed as a reduced rate of this increase in relative fluorescence. The various hydroxamic acids were analyzed using a single low enzyme concentration with a single substrate concentration fixed at or below the Km. This protocol is a modification of method by Knight et al., FEBS Lett., 296(3), 263-266 (1992). Apparent inhibitory constants were determined by non-linear regression of reaction velocity as a function of inhibitor and enzyme concentration using Morrison's equation, as described by Kuzmic, Anal. Biochem. 286, 45-50 (2000). Modifications were made in the non-linear regression method to allow a common control reaction rate and effective enzyme concentration to be shared between all dose-response relationships on a given assay plate. […]

[2] = biological target: T2, MMP-2 (Homo sapiens, UniProt P08253); assay: as above; format: biochemical
T2 construct: made in house; host or cells: MMP-2-transfected p2AHT2 cells
T2 sequence (P08253 110-660): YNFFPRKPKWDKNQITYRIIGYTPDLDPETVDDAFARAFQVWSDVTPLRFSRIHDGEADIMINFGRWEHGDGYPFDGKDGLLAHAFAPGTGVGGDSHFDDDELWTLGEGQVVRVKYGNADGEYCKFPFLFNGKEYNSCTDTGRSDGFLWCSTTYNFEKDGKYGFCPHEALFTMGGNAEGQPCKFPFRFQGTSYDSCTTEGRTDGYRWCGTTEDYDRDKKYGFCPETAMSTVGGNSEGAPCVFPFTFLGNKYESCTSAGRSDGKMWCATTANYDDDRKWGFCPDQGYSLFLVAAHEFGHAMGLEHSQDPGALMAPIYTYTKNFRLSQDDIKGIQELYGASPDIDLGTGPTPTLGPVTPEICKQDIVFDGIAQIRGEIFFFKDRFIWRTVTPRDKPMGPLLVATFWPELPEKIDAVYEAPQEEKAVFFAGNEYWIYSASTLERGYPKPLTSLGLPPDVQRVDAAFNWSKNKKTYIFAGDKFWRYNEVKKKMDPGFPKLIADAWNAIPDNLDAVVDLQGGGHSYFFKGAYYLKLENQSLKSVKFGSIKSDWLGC
Procedure: as §1, §2
The MMP-2 proenzyme was purified by gelatin Sepharose chromatography from MMP-2-transfected p2AHT2 cells provided by Dr. Gregory Goldberg of Washington University (St. Louis, Mo.).
as §3, §4, §5
The assays from which the Ki determinations were made were performed as follows. The assayed hydroxamic acid samples were incubated in separate wells of untreated white polystyrene plates (Nunc Nalgene International, Rochester, N.Y.), and analyzed on a Tecan SpectraFlour Plus plate reader. The excitation wavelength was 330 nm, and the emission wavelength—420 nm. All samples (assayed hydroxamic acids and controls) were incubated in separate plate wells at room temperature for 1 hr in the presence of 4 μM of MMP substrate (II). In the absence of MMP inhibitory activity, substrate II was cleaved at the Gly-Leu bond resulting in an increase of relative fluorescence. Inhibition was observed as a reduced rate of this increase in relative fluorescence. The various hydroxamic acids were analyzed using a single low enzyme concentration with a single substrate concentration fixed at or below the Km. This protocol is a modification of method by Knight et al., FEBS Lett., 296(3), 263-266 (1992). Apparent inhibitory constants were determined by non-linear regression of reaction velocity as a function of inhibitor and enzyme concentration using Morrison's equation, as described by Kuzmic, Anal. Biochem. 286, 45-50 (2000). […] Since the substrate concentration was chosen to be at or below the Km, the apparent Ki's from this analysis were reported as Ki's without correction for the influence of substrate.

[3] = human recombinant enzyme, 4 μM substrate II, room temperature, 1 hr
[4] = human recombinant enzyme, 4 μM substrate II, room temperature, 1 hr, read-out: MMP-2 Ki
[5] = value not in parenthesis, read-out: MMP-2 Ki
[6] = MMP-2 Ki, value not in parenthesis

| Structure (SMILES) | Ki [1, 3] | Ki [2, 4] | Ki ([1]; value not in parenthesis) | Ki [2, 5] | Ki [2, 6] |
| --- | --- | --- | --- | --- | --- |
| O=C(NO)C1(S(=O)(=O)N2CCC(c3ccc(CCC(F)(F)C(F)(F)F)cc3)CC2)CCOCC1 [Example 18, N-hydroxy-4-({4-[4-(3,3,4,4,4-pentafluorobutyl)phenyl]piperidin-1-yl}sulfonyl)tetrahydro-2H-pyran-4-carboxamide] | 0.398 nM | 0.565 nM | – | – | – |
| CCCCc1ccc(C2CCN(S(=O)(=O)C3(C(=O)NO)CCOCC3)CC2)s1 [Example 19, 4-{[4-(5-butylthien-2-yl)piperidin-1-yl]sulfonyl}-N-hydroxytetrahydro-2H-pyran-4-carboxamide] | 0.5 nM | 2.06 nM | – | – | – |
| COCCN1CCC(C(=O)NO)(S(=O)(=O)N2CCC(c3ccc(OCCCC(F)(F)F)cc3)CC2)CC1 [Example 20, N-hydroxy-1-(2-methoxyethyl)-4-({4-[4-(4,4,4-trifluorobutoxy)phenyl]piperidin-1-yl}sulfonyl)piperidine-4-carboxamide Hydrochloride] | 3.86 nM | 0.83 nM | – | – | – |
| CCCCCc1ccc(N2CCN(S(=O)(=O)C3(C(=O)NO)CCOCC3)CC2)c(F)c1 [Example 23, 4-{[4-(2-fluoro-4-pentylphenyl)piperazin-1-yl]sulfonyl}-N-hydroxytetrahydro-2H-pyran-4-carboxamide Hydrochloride] | 2.67 nM | 8.25 nM | – | – | – |
| CCCCc1ccc(C2CCN(S(=O)(=O)C3(C(=O)NO)CCN(C4CC4)CC3)CC2)nc1 [Example 24, 4-{[4-(5-butylpyridin-2-yl)piperidin-1-yl]sulfonyl}-1-cyclopropyl-N-hydroxypiperidine-4-carboxamide Hydrochloride] | 0.12 nM | 0.91 nM | – | – | – |
| O=C(NO)C1(S(=O)(=O)N2CCC(c3ccc(OCC(F)(F)F)cc3)CC2)CCN(C2CC2)CC1 [Example 25, 1-cyclopropyl-N-hydroxy-4-({4-[4-(2,2,2-trifluoroethoxy)phenyl]piperidin-1-yl}sulfonyl)piperidine-4-carboxamide Hydrochloride] | 6 nM | 1.18 nM | – | – | – |
| CCCCCCCCC1CCN(S(=O)(=O)C2(C(=O)NO)CCOCC2)CC1 [Example 26, 4-(4-octyl-piperidine-1-sulfonyl)-tetrahydro-pyran-4-carboxylic Acid Hydroxyamide] | 0.33 nM | 0.78 nM | – | – | – |
| O=C(NO)C1(S(=O)(=O)N2CCC(c3cnc(OCC(F)(F)C(F)(F)F)cn3)CC2)CCOCC1 [Example 27] | 0.54 nM | 0.59 nM | – | – | – |
| CCCCCc1cnc(N2CCN(S(=O)(=O)C3(C(=O)NO)CCOCC3)CC2)s1 [Example 56] | – | – | 3.49 nM | 1.02 nM | – |
| O=C(NO)C1(S(=O)(=O)N2CCN(c3ccc(-c4ccc(Cl)cc4)cn3)CC2)CCOCC1 [Example 60] | – | – | 7.05 nM | 0.54 nM | – |
| O=C(NO)C1(S(=O)(=O)N2CCN(c3ccc(COCC(F)(F)C(F)(F)C(F)(F)C(F)F)cc3)CC2)CCOCC1 [Example 68] | – | – | 208 nM | – | 4.69 nM |
| O=C(NO)C1(S(=O)(=O)N2CCN(c3ccc(COCC(F)(F)C(F)(F)C(F)(F)F)cc3)CC2)CCOCC1 [Example 69] | – | – | 202 nM | – | 5.44 nM |
| O=C(NO)C1(S(=O)(=O)N2CCN(c3ncc(Br)cn3)CC2)CCOCC1 [Example 103] | – | – | 10.5 nM | 3.44 nM | – |
| O=C(NO)C1(S(=O)(=O)N2CCN(c3ncc(Br)cn3)CC2)CCOCC1 [Example 104] | – | – | 11.9 nM | 4.73 nM | – |
| O=C(NO)C1(S(=O)(=O)N2CCN(c3ncccn3)CC2)CCOCC1 [Example 106] | – | – | 235 nM | 134 nM | – |
| O=C(NO)C1(S(=O)(=O)N2CCN(c3ncccn3)CC2)CCOCC1 [Example 107] | – | – | 153 nM | 115 nM | – |
| CCCCCCCCCc1cnc(N2CCN(S(=O)(=O)C3(C(=O)NO)CCOCC3)CC2)nc1 [Example 110] | – | – | 40.6 nM | 61.7 nM | – |
| CCCCCCCCCc1cnc(N2CCN(S(=O)(=O)C3(C(=O)NO)CCOCC3)CC2)nc1 [Example 111] | – | – | 30.6 nM | 49.6 nM | – |

More lines, main results first:

| Ki [1, 3] | Ki [2, 4] | Ki ([1]; value not in parenthesis) | Ki [2, 5] | Structure (SMILES) | Ki [2, 6] |
| --- | --- | --- | --- | --- | --- |
| 8.18 nM | 3.82 nM | – | – | CCCCCc1ccc(N2CCN(S(=O)(=O)C3(C(=O)NO)CCN(C(=O)C(F)(F)F)CC3)CC2)cc1 [Example 21, N-hydroxy-4-{[4-(4-pentylphenyl)piperazin-1-yl]sulfonyl}-1-(trifluoroacetyl)piperidine-4-carboxamide Hydrochloride] | – |
| 3.2 nM | 3.19 nM | – | – | CCCCCc1ccc(N2CCN(S(=O)(=O)C3(C(=O)NO)CCN(CC)CC3)CC2)cc1F [Example 22, 1-ethyl-4-{[4-(3-fluoro-4-pentylphenyl)piperazin-1-yl]sulfonyl}-N-hydroxypiperidine-4-carboxamine Hydrochloride] | – |
| – | – | 3.8 nM | 1.64 nM | C=CCCOC(=O)N1CCC(C(=O)NO)(S(=O)(=O)N2CCN(c3ccc(OCCCC)cc3)CC2)CC1 [Example 101] | – |
| – | – | 18.1 nM | 1.25 nM | COCCN1CCC(C(=O)NO)(S(=O)(=O)N2CCN(c3ccc(OCCCC(F)(F)F)cc3F)CC2)CC1 [Example 102] | – |
| – | – | 401 nM | 431 nM | COc1ccc(N2CCN(S(=O)(=O)C3(C(=O)NO)CCOCC3)CC2)nc1 [Example 108] | – |
| – | – | 447 nM | 477 nM | COc1ccc(N2CCN(S(=O)(=O)C3(C(=O)NO)CCOCC3)CC2)nc1 [Example 109] | – |
| – | – | 15.4 nM | 0.69 nM | O=C(NO)C1(S(=O)(=O)N2CCN(c3ccc(OCCCC(F)(F)F)cc3)CC2)CCN(c2cnccn2)CC1 [Example 112] | – |
| – | – | 1.01 nM | 0.4 nM | CCCCOc1ccc(N2CCN(S(=O)(=O)C3(C(=O)NO)CCN(C(=O)OCCF)CC3)CC2)cc1 [Example 113] | – |
